Data as given in US20250351832A1, “PHYTOCHEMICALS AS BIOPESTICIDES AND BIOSTIMULANTS” (KAY BEE BIO ORGANICS PVT. LTD., priority 2024, published 2025).
Like-named read-outs stand apart in the source and are kept apart here.

Key:
chili seedlings = experiment: Response of chili plants, greenhouse growth (Ex. 31); type: in vivo; settings: chili seedlings, dose 1 ml/gm/lit; for CCI 5th Day / Plant Height (cm) 5th Day: 5th day after application; for CCI 10th Day / Plant Height (cm) 10th Day: 10th day after application; for CCI % Increase over pre on 10th Day / Plant Height % Increase over pre on 10th Day / Root Lenght (cm) 10th Day / Stem Girth % Increase over pre on 10th Day / Root Lenght % Increase over control: 10th day; for Root Lenght % Increase over control: vs water control
Mite [1] = settings: Dose 1 ml/gm/lit.
Spodoptera litura [2] = experiment: whole plant or invertebrate; settings: 72 h
Alternaria alternata [3] = experiment: Alternaria leaf spot/blight on inoculated tomato plants (Ex. 28); type: in vivo
Alternaria alternata [4] = experiment: In vitro poisoned food technique against fungus (Ex. 20); type: cell-based
Aphid [5] = test system: Aphid
Mealy Bug [6] = settings: mealy bug on cotton plants, green house, dose 1 ml/gm/lit. spray
Thrips [7] = settings: Thrips on cotton leaves; dose 1 ml/gm/lit.; 10 insects/treatment; 48 hrs after application
Mealy Bug [8] = settings: Mealy Bug on cotton leaves, dose 1 ml/gm/lit., 48 Hrs.
Helicoverpa armigera [9] = settings: Helicoverpa armigera 3rd instar on chickpea plants, dose 1 ml/gm/lit. spray
Aphid [10] = experiment: whole plant or invertebrate; settings: 48 h
Thrips [11] = experiment: whole plant or invertebrate; settings: in Gossypium hirsutum, 48 h
[12] = cited from earlier work
tomato seedlings = experiment: Response of tomato plants, greenhouse growth (Ex. 30); type: in vivo; settings: tomato seedlings, dose 1 ml/gm/lit; for Plant Height 5th Day / Stem Girth 5th Day / CCI 5th Day: 5th day after application; for Plant Height 10th Day / Stem Girth 10th Day / CCI 10th Day: 10th day after application; for Plant Height % Increase over pre on 10th Day / Stem Girth % Increase over pre on 10th Day / CCI % Increase over pre on 10th Day / Root Length (cm) 10th Day / Root Length % Increase over control: 10th day; for Root Length % Increase over control: vs water control
Spodoptera litura [13] = test system: Spodoptera litura
Mite [14] = settings: mite on okra plants, green house, dose 1 ml/gm/lit. spray
Helicoverpa armigera [15] = test system: Helicoverpa armigera
Aphid [16] = settings: Aphids on cotton plants, green house; dose 1 ml/gm/lit.; 10 insects/plant, 10 plants/treatment; 48 hrs
Thrips [17] = test system: Thrips
Spodoptera litura [18] = settings: in vivo
[19] = read-out: % Corrected Mortality at 72 Hrs.
[20] = read-out: % Mortality at 72 Hrs.
[21] = poisoned food technique, PDA medium, dose 1 ml/gm/lit., after seven days
[22] = 48 hrs, corrected for water control
[23] = read-out: % Corrected Mortality at 48 Hrs.
[24] = read-out: % Mortality at 48 Hrs.
[25] = Table 13, descriptive, no test described
[26] = thrips on cotton plants, greenhouse, dose 1 ml/gm/lit. spray, 48 hrs after application

SMILES: CC1=CC(=O)C(C(C)C)=CC1=O [Thymoquinone]
- CCI 5th Day (chili seedlings): 13.76
- Plant Height (cm) 5th Day (chili seedlings): 5.77 cm
- CCI % Increase over pre on 10th Day (chili seedlings): 58.19%
- Plant Height % Increase over pre on 10th Day (chili seedlings): 63.27%
- Root Lenght (cm) 10th Day (chili seedlings): 4.16 cm
- Stem Girth % Increase over pre on 10th Day (chili seedlings): 57.48%
- CCI 10th Day (chili seedlings): 14
- Plant Height (cm) 10th Day (chili seedlings): 6.89 cm
- Root Lenght % Increase over control (chili seedlings): 52.17%
- Total No. of dead insect at 48 Hrs. (Mite [1]; 10 insects/treatment, 4 replications, okra leaves): 3.25
- % Corrected Mortality at 48 Hrs. (Mite [1]; 48 hrs): 27.03%
- % Mortality at 48 Hrs. (Mite [1]; 48 hrs): 32.50%
- mortality at 1 mL or g/L (Spodoptera litura [2]; [19]): 39.5%
- mortality at 1 mL or g/L (Spodoptera litura [2]; [20]): 42.5%
- % Disease reduction over Control (Alternaria alternata [3]; tomato plants, Alternaria alternata, after 7 days, dose 1 ml/gm/lit): 44.63%
- Mean colony Diameter (mm) (Alternaria alternata [4]; [21]): 54.00 mm
- inhibition of growth at 1 mL or g/L (Alternaria alternata [4]; poisoned food technique, PDA medium, dose 1 ml/gm/lit., after seven days, vs untreated control, read-out: % Inhibition of growth): 38.6%
- Total No. of dead insect at 48 Hrs. (Aphid [5]; Dose 1 ml/gm/lit., 10 insects/treatment, 4 replications, cotton leaves): 4.75
- % Corrected Mortality at 48 Hrs. (Aphid [5]; Dose 1 ml/gm/lit., 48 hrs): 40.00%
- % Mortality at 48 Hrs. (Mealy Bug [6]; 48 hrs after application): 50.00%
- Total No. of dead insect at 48 Hrs. (Mealy Bug [6]; 48 hrs after application): 50.00
- % Corrected Mortality at 48 Hrs. (Mealy Bug [6]; [22]): 44.44%
- Total No. of dead insect at 48 Hrs. (Thrips [7]): 2.25
- Total No. of dead insect at 48 Hrs. (Mealy Bug [8]; 10 insects/treatment, 4 replications): 5.25
- % Mortality at 48 Hrs. (Mealy Bug [8]): 52.50%
- % Corrected Mortality at 48 Hrs. (Mealy Bug [8]; corrected for water control): 50.00%
- % Mortality at 72 Hrs. (Helicoverpa armigera [9]; 72 hrs after application): 45.00%
- % Corrected Mortality at 72 Hrs. (Helicoverpa armigera [9]; 72 hrs, corrected for water control): 45.00%
- mortality at 1 mL or g/L (Aphid [10]; [23]): 38.2%
- mortality at 1 mL or g/L (Aphid [10]; [24]): 47.5%
- mortality at 1 mL or g/L (Thrips [11]; [23]): 11.4%
- mortality at 1 mL or g/L (Thrips [11]; [24]): 22.5%
- Acaricidal Activity - Mode of action [12, 25]: Contact acaricidal activity
- Antioxidant Activity - Mode of action [12, 25]: Reducing Oxidative Stress
- Bactericidal Activity - Mode of action [12, 25]: Inhibitory effect on spore
- Insecticidal Activities - Mode of action [12, 25]: Decreased larval survival
- Plant Height 5th Day (tomato seedlings): 6.58 cm
- Stem Girth 5th Day (tomato seedlings): 1.68 mm
- Plant Height 10th Day (tomato seedlings): 7.69 cm
- Stem Girth 10th Day (tomato seedlings): 2.30 mm
- Plant Height % Increase over pre on 10th Day (tomato seedlings): 41.36%
- Stem Girth % Increase over pre on 10th Day (tomato seedlings): 74.24%
- CCI 5th Day (tomato seedlings): 14.21
- CCI % Increase over pre on 10th Day (tomato seedlings): 30.73%
- Root Length (cm) 10th Day (tomato seedlings): 4.42 cm
- CCI 10th Day (tomato seedlings): 16.21
- Root Length % Increase over control (tomato seedlings): 32.93%
- Total No. of dead insect at 72 Hrs. (Spodoptera litura [13]; Spodoptera litura on castor leaves, dose 1 ml/gm/lit., 10 insects/treatment, 72 hrs after application): 4.25
- % Mortality at 48 Hrs. (Mite [14]; 48 hrs after application): 30.00%
- Total No. of dead insect at 48 Hrs. (Mite [14]; 48 hrs after application): 30.00
- % Corrected Mortality at 48 Hrs. (Mite [14]; [22]): 26.32%
- Total No. of dead insect at 72 Hrs. (Helicoverpa armigera [15]; Helicoverpa armigera on okra fruits, dose 1 ml/gm/lit., 10 insects/treatment, 4 replications, 72 Hrs.): 4.25
- % Mortality at 72 Hrs. (Helicoverpa armigera [15]; Helicoverpa armigera on okra fruits, dose 1 ml/gm/lit., 72 Hrs.): 42.50%
- % Corrected Mortality at 72 Hrs. (Helicoverpa armigera [15]; Helicoverpa armigera on okra fruits, dose 1 ml/gm/lit., 72 Hrs., corrected for water control): 42.50%
- Total No. of dead insect at 48 Hrs. (Aphid [16]): 47.50
- % Mortality at 48 Hrs. (Thrips [17]; [26]): 20.00%
- Total No. of dead insect at 48 Hrs. (Thrips [17]; [26]): 20.00
- % Corrected Mortality at 48 Hrs. (Thrips [17]; thrips on cotton plants, greenhouse, dose 1 ml/gm/lit. spray, 48 hrs, corrected for water control): 11.11%

SMILES: COc1cc(CNC(=O)CCCC/C=C/C(C)C)ccc1O [Capsaicin]
- CCI 5th Day (chili seedlings): 12.21
- Plant Height (cm) 5th Day (chili seedlings): 6.30 cm
- CCI % Increase over pre on 10th Day (chili seedlings): 46.96%
- Plant Height % Increase over pre on 10th Day (chili seedlings): 43.26%
- Root Lenght (cm) 10th Day (chili seedlings): 2.99 cm
- Stem Girth % Increase over pre on 10th Day (chili seedlings): 43.31%
- CCI 10th Day (chili seedlings): 13.52
- Plant Height (cm) 10th Day (chili seedlings): 6.59 cm
- Root Lenght % Increase over control (chili seedlings): 9.09%
- mortality at 1 mL or g/L (Spodoptera litura [2]; [19]): 39.5%
- mortality at 1 mL or g/L (Spodoptera litura [2]; [20]): 42.5%
- % Disease reduction over Control (Alternaria alternata [3]; in vivo): 51.24%
- inhibition of growth at 1 mL or g/L (Alternaria alternata [4]; […]): 42.6%
- Mean colony Diameter (mm) (Alternaria alternata [4]; [21]): 50.50 mm
- % Corrected Mortality at 48 Hrs. (Aphid [5]; in vivo): 57.14%
- % Corrected Mortality at 72 Hrs. (Spodoptera litura [18]): 44.74%
- % Mortality at 72 Hrs. (Spodoptera litura [18]): 47.50%
- mortality at 1 mL or g/L (Aphid [10]; [23]): 55.9%
- mortality at 1 mL or g/L (Aphid [10]; [24]): 62.5%
- mortality at 1 mL or g/L (Thrips [11]; [23]): 57.1%
- mortality at 1 mL or g/L (Thrips [11]; [24]): 62.5%
- Acaricidal Activity - Mode of action [12, 25]: Acts as a mite feeding
- Antifungal Activity - Mode of action [12, 25]: Inhibits the hyphae
- Antioxidant Activity - Mode of action [12, 25]: Showed antioxidant
- Bactericidal Activity - Mode of action [12, 25]: Inhibition of bacterial
- Insecticidal Activities - Mode of action [12, 25]: Fumigant and larvicidal
- Virucidal Activity - Mode of action [12, 25]: Inhibited viral replication
- Phytotonic Effect ([12]; Table 13, effect on plants, descriptive): Increase
- Plant Height 5th Day (tomato seedlings): 7.11 cm
- Stem Girth 5th Day (tomato seedlings): 1.92 mm
- Plant Height 10th Day (tomato seedlings): 7.86 cm
- Stem Girth 10th Day (tomato seedlings): 2.01 mm
- Plant Height % Increase over pre on 10th Day (tomato seedlings): 29.28%
- Stem Girth % Increase over pre on 10th Day (tomato seedlings): 58.60%
- CCI 5th Day (tomato seedlings): 14.66
- CCI % Increase over pre on 10th Day (tomato seedlings): 21.99%
- Root Length (cm) 10th Day (tomato seedlings): 3.95 cm
- CCI 10th Day (tomato seedlings): 15.42
- Root Length % Increase over control (tomato seedlings): 18.74%
- Total No. of dead insect at 72 Hrs. (Spodoptera litura [13]; in vivo): 4.25
- Total No. of dead insect at 72 Hrs. (Helicoverpa armigera [15]; in vivo): 4.50
- % Corrected Mortality at 48 Hrs. (Thrips [17]; in vivo): 55.56%
- % Mortality at 48 Hrs. (Thrips [17]; in vivo): 60.00%
